Data taken from ChEMBL document CHEMBL1201862, “PubChem BioAssay data set” (2004).
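Five concentrations, 48 hours, 96-well plates. GI50 marks 50% less growth.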 Activity calls are given as the source filed them. Cut-off read from the data, not from the text of the source: active = GI50 up to about 1.1 µM and inactive = higher.

Experiments:
Assay in all cases: inhibition of tumour cell growth, NCI panel, 48 h
SNB-78 = test system: SNB-78
HOP-92 = test system: HOP-92
HCT-116 = test system: HCT-116
HL-60 = test system: HL-60
NCI-H460 = test system: NCI-H460
DMS-114 = test system: DMS-114
M19-MEL = test system: M19-MEL
HCC 2998 = test system: HCC 2998
HOP-18 = test system: HOP-18
M14 = test system: M14
MDA-N = test system: MDA-N
MDA-MB-435 = test system: MDA-MB-435
PC-3 = test system: PC-3
ACHN = test system: ACHN
DU-145 = test system: DU-145
T47D = test system: T47D
MDA-MB-231 = test system: MDA-MB-231
TK-10 = test system: TK-10
Hs-578T = test system: Hs-578T
BT-549 = test system: BT-549

Row | SMILES | GI50 (SNB-78) | GI50 (HOP-92) | GI50 (HCT-116) | GI50 (HL-60) | GI50 (NCI-H460) | GI50 (DMS-114) | GI50 (M19-MEL) | GI50 (HCC 2998) | GI50 (HOP-18) | GI50 (M14) | GI50 (MDA-N) | GI50 (MDA-MB-435) | GI50 (PC-3) | GI50 (ACHN) | GI50 (DU-145) | GI50 (T47D) | GI50 (MDA-MB-231) | GI50 (TK-10) | GI50 (Hs-578T) | GI50 (BT-549)
1 | CCCNC1=C(C)C(=O)C2=C(C1=O)[C@H](COC(N)=O)[C@]1(OC)[C@@H]3N[C@@H]3CN21 | 26.9 µM (inactive) | 8.57 µM (inactive) | 3.69 µM (inactive) | 0.394 µM (active) | 0.0661 µM (active) | 4 µM (inactive) | 3.44 µM (inactive) | 3.79 µM (inactive) | 13.4 µM (inactive) | – | – | – | – | – | – | – | – | – | – | –
2 | Cc1ccc(C(C)(C)C[P+](C)(c2ccccc2)c2ccccc2)cc1 | 14.7 µM (inactive) | 1.97 µM (inactive) | 6.56 µM (inactive) | 1.75 µM (inactive) | 14 µM (inactive) | 5.25 µM (inactive) | 4.52 µM (inactive) | 9.73 µM (inactive) | 6.43 µM (inactive) | – | – | – | – | – | – | – | – | – | – | –
3 | COc1nc2ccc(COc3ccc(C(=O)NC(CCC(=O)O)C(=O)O)cc3)cc2nc1OC (stereo not given) | – | > 10 µM (inactive) | – | > 10 µM (inactive) | > 10 µM (inactive) | – | – | > 10 µM (inactive) | – | > 10 µM (inactive) | > 10 µM (inactive) | > 10 µM (inactive) | > 10 µM (inactive) | > 10 µM (inactive) | > 10 µM (inactive) | > 10 µM (inactive) | > 10 µM (inactive) | > 10 µM (inactive) | > 10 µM (inactive) | –
4 | CCOC(=O)C1(C/C=C\CBr)CCCCCCC1=O (stereo not given) | – | – | > 100 µM (inactive) | > 100 µM (inactive) | – | – | – | – | – | > 100 µM (inactive) | > 100 µM (inactive) | > 100 µM (inactive) | > 100 µM (inactive) | > 100 µM (inactive) | > 100 µM (inactive) | > 100 µM (inactive) | > 100 µM (inactive) | 91 µM (inactive) | > 100 µM (inactive) | > 100 µM (inactive)
5 | CC(=O)Nc1cccc(/N=N/N(C)C)c1 | > 100 µM (inactive) | > 100 µM (inactive) | > 100 µM (inactive) | > 100 µM (inactive) | > 100 µM (inactive) | > 100 µM (inactive) | > 100 µM (inactive) | > 100 µM (inactive) | > 100 µM (inactive) | – | – | – | – | – | – | – | – | – | – | –
6 | O=C(NN=C1CCCCC1)NN=C1CCCCC1 | – | – | > 100 µM (inactive) | – | > 100 µM (inactive) | – | – | – | – | > 100 µM (inactive) | > 100 µM (inactive) | > 100 µM (inactive) | > 100 µM (inactive) | – | > 100 µM (inactive) | > 100 µM (inactive) | > 100 µM (inactive) | > 100 µM (inactive) | > 100 µM (inactive) | > 100 µM (inactive)
7 | CN1CCOC(c2ccc(Cl)cc2)O1 (stereo not given) | – | > 100 µM (inactive) | – | – | > 100 µM (inactive) | – | – | > 100 µM (inactive) | – | > 100 µM (inactive) | > 100 µM (inactive) | > 100 µM (inactive) | > 100 µM (inactive) | > 100 µM (inactive) | – | – | > 100 µM (inactive) | > 100 µM (inactive) | – | > 100 µM (inactive)
8 | CCOP(=O)(C/C=C/Cn1ncc(=O)[nH]c1=O)OCC | – | > 100 µM (inactive) | – | > 100 µM (inactive) | > 100 µM (inactive) | – | – | > 100 µM (inactive) | – | > 100 µM (inactive) | > 100 µM (inactive) | > 100 µM (inactive) | > 100 µM (inactive) | 63.2 µM (inactive) | > 100 µM (inactive) | > 100 µM (inactive) | > 100 µM (inactive) | > 100 µM (inactive) | > 100 µM (inactive) | > 100 µM (inactive)
9 | Cc1ccc(C2C(C(=O)C(C)(C)C)N2S(=O)(=O)c2ccc(C)cc2)cc1 (stereo not given) | – | – | 18.7 µM (inactive) | – | – | – | – | 19.1 µM (inactive) | – | 17.8 µM (inactive) | 19.1 µM (inactive) | 20.9 µM (inactive) | 29.7 µM (inactive) | – | 18.7 µM (inactive) | 21 µM (inactive) | 19.8 µM (inactive) | 28.6 µM (inactive) | 28.7 µM (inactive) | 17.7 µM (inactive)
10 | CO/C(=N\N=C(/C)C(F)(F)F)c1ccncc1 | – | > 100 µM (inactive) | > 100 µM (inactive) | > 100 µM (inactive) | > 100 µM (inactive) | – | – | – | – | > 100 µM (inactive) | > 100 µM (inactive) | > 100 µM (inactive) | 38.7 µM (inactive) | – | > 100 µM (inactive) | > 100 µM (inactive) | > 100 µM (inactive) | – | > 100 µM (inactive) | > 100 µM (inactive)
11 | CCCC(O)C(NC(=O)CCl)C(=O)O (stereo not given) | > 100 µM (inactive) | > 100 µM (inactive) | > 100 µM (inactive) | > 100 µM (inactive) | > 100 µM (inactive) | > 100 µM (inactive) | > 100 µM (inactive) | > 100 µM (inactive) | > 100 µM (inactive) | – | – | – | – | – | – | – | – | – | – | –
12 | CSCCC(NC(=O)C(Cc1ccccc1)NC(=O)CNC(=O)CNC(=O)C(N)Cc1ccc(O)cc1)C(=O)O (stereo not given) | > 100 µM (inactive) | > 100 µM (inactive) | > 100 µM (inactive) | > 100 µM (inactive) | > 100 µM (inactive) | > 100 µM (inactive) | > 100 µM (inactive) | > 100 µM (inactive) | > 100 µM (inactive) | – | – | – | – | – | – | – | – | – | – | –
13 | O=P(Nc1ccccc1)(Oc1ccccc1)N(CCCl)CCCl (stereo not given) | > 100 µM (inactive) | 26.4 µM (inactive) | > 100 µM (inactive) | 14.8 µM (inactive) | – | 60.1 µM (inactive) | > 100 µM (inactive) | > 100 µM (inactive) | > 100 µM (inactive) | 91.8 µM (inactive) | – | – | – | > 100 µM (inactive) | – | – | – | > 100 µM (inactive) | – | –
14 | N#Cc1c(NC(=S)NC(=O)c2ccccc2)nc2c(c1-c1ccccc1)CCC2 | – | – | > 100 µM (inactive) | > 100 µM (inactive) | > 100 µM (inactive) | – | – | – | – | > 100 µM (inactive) | > 100 µM (inactive) | > 100 µM (inactive) | > 100 µM (inactive) | > 100 µM (inactive) | > 100 µM (inactive) | 25.5 µM (inactive) | 43.9 µM (inactive) | 91 µM (inactive) | 39.8 µM (inactive) | > 100 µM (inactive)
15 | Cc1cc(C)c2c(O)cc(-c3ccc(F)cc3)nc2n1 | – | 29.9 µM (inactive) | – | – | – | – | – | 31.3 µM (inactive) | – | 45.7 µM (inactive) | – | – | – | 39.7 µM (inactive) | 66.1 µM (inactive) | 37.8 µM (inactive) | 63 µM (inactive) | 95.1 µM (inactive) | 69 µM (inactive) | 65.8 µM (inactive)
